Measured values reported in patent US20250263440A1, “CD38-BINDING AGENTS AND USES THEREOF” (PeptiDream Inc., priority 2019, published 2025).
Starred links: 1 amine or outer side, 2 acyl side, 3 side chain; linkers in the order of their positions; H or OH if unused. Positions of bridges follow the written chain, without caps; N, C: chain ends. Non-standard residues stand in square brackets, D forms with d. Residues, ends and D or L forms follow the SMILES beside them. *: point of attachment. Ala(2-NH2-4-pyridyl) = Nc1cc(C[C@H](N)C(=O)O)ccn1; Bip = N[C@@H](Cc1ccc(-c2ccccc2)cc1)C(=O)O; Nle(6-Ph) = N[C@@H](CCCCc1ccccc1)C(=O)O; Met(O2) = CS(=O)(=O)CC[C@H](N)C(=O)O; Arg(Me) = CNC(=N)NCCC[C@H](N)C(=O)O; X4 = CCCCCCC[C@H](N[*:1])C(=O)[*:2]; hhPhe = N[C@@H](CCCc1ccccc1)C(=O)O; Ahp(2) = CCCCC[C@H](N)C(=O)O; X1 = COCCOCCOCCOCCC(=O)*

Molecular target: His-tagged CD38 (Homo sapiens, UniProt P28907)
Assay: SPR assay (Biacore S200, Sensor Chip NTA, single-cycle kinetics) of SEQ ID NO.1 variants against His-tagged CD38
Format: binding
Conditions: for kon / koff: SPR Biacore S200, NTA chip, His-tagged CD38; for kon: read-out: Ka (association rate constant); for koff: read-out: Kd (dissociation rate constant); for Kd: SPR Biacore S200, His-tagged CD38, calculated from ka and kd
Description: SPR assay was performed using Biacore S200 (Cytiva: Former GE Healthcare).
After the equilibration of Series S Sensor Chip NTA (produced by Cytiva: Former GE Healthcare) with Running Buffer (10 mM HEPES pH7.4, 150 mM NaCl, 0.05% Tween 20), followed by injection of 350 mM EDTA at a flow rate of 10 L/min for 60 seconds and […] NiCl2 at a flow rate of 10 L/min for 60 seconds, then 3 mM EDTA at a flow rate of 10 L/min for 120 seconds, sequently, to wash the sensor chip.
EDC/NHS mixture was injected at a flow rate of […] for 7 minutes to thereby activate the functional groups on sensor chip. His-tagged CD38 in Running Buffer (10 mM HEPES pH7.4, 150 mM NaCl, 0.05% Tween 20) was injected immobilized to at a flow rate of […]. For 7 minutes to immobilize the CD38 on the substrate surfaces of the sensor chip. Then Ethanolamine was injected at a flow rate of […] for 7 minutes.
1.0 M Ethanolamine(aq.) was injected at a flow rate of 10 L/min for 420 seconds for capping. 10 mM peptides (which were synthesised described above) in DMSO were diluted to obtain 10 uM with Running Buffer, and prepared 100 nM, 50 nM, 25 nM, 10 nM, 5 nM of each peptide's solutions (Peptide Samples).
Using these Peptide Samples, kinetics of peptides against His-tagged CD38 was measured. The method adopted for sample measurement was a single-cycle kinetics method. The analysis was conducted using the evaluation software 1.1 provided with Biacore S200. A DMSO correction curve obtained by solvent correction measurements was applied for the analysis. Kinetics fitting was done on the difference data obtained by subtracting the baseline data from sample measurement data.
KD values were calculated based on the association rate constant (ka) and dissociation rate constant (kd).

| kon [M⁻¹ s⁻¹] | koff [s⁻¹] | Kd [nM] | SMILES |
| --- | --- | --- | --- |
| 160000 | 0.0012 |  | CCCCC[C@@H]1NC(=O)[C@H](Cc2ccc(-c3ccccc3)cc2)NC(=O)[C@H](CC(C)C)NC(=O)[C@H](C(C)C)NC(=O)[C@H](CCC(=O)O)NC(=O)[C@H](CC(=O)O)NC(=O)[C@H](Cc2c[nH]cn2)NC(=O)[C@H](Cc2ccc(O)cc2)NC(=O)[C@H](CCCCNC(=O)CCOCCOCCOCCOC)NC(=O)[C@H](CCCNC(=N)N)NC(=O)[C@H](C)NC(=O)CSC[C@@H](C(N)=O)NC(=O)[C@H](CC(=O)O)NC1=O [compound 19] ({CH2CO}-ARK(X1)YHDEVL[Bip][Ahp(2)]DC-NH2; thioether N-13) |
| 730000 | 0.0077 | 10.6 | CCCCC[C@@H]1NC(=O)[C@H](Cc2ccc(-c3ccccc3)cc2)NC(=O)[C@H](CC(C)C)NC(=O)[C@H](C(C)C)NC(=O)[C@H](CCC(=O)O)NC(=O)[C@H](CC(=O)O)NC(=O)[C@H](Cc2c[nH]cn2)NC(=O)[C@H](Cc2ccc(O)cc2)NC(=O)[C@H](CCCCC)NC(=O)[C@H](CCCNC(=N)N)NC(=O)[C@@H](C)NC(=O)CSC[C@@H](C(N)=O)NC(=O)[C@H](CC(=O)O)NC1=O [compound 20] ({CH2CO}-[dA]R[Ahp(2)]YHDEVL[Bip][Ahp(2)]DC-NH2; thioether N-13) |
| 820000 | 0.0027 |  | CCCCCCC[C@@H]1NC(=O)[C@H](Cc2ccc(-c3ccccc3)cc2)NC(=O)[C@H](CC(C)C)NC(=O)[C@H](C(C)C)NC(=O)[C@H](CCC(=O)O)NC(=O)[C@H](CC(=O)O)NC(=O)[C@H](Cc2c[nH]cn2)NC(=O)[C@H](Cc2ccc(O)cc2)NC(=O)[C@H](CCCCC)NC(=O)[C@H](CCCNC(=N)N)NC(=O)[C@H](C)NC(=O)CSC[C@@H](C(N)=O)NC(=O)[C@H](CC(=O)O)NC1=O [compound 23] ({CH2CO}-AR[Ahp(2)]YHDEVL[Bip][X4]DC-NH2; thioether N-13) |
| 819000 | 0.0535 |  | CCCCC[C@@H]1NC(=O)[C@H](CCCNC(=N)N)NC(=O)[C@H](C)NC(=O)CSC[C@@H](C(N)=O)NC(=O)[C@H](CC(=O)O)NC(=O)[C@H](CCCCC)NC(=O)[C@H](Cc2ccc(-c3ccccc3)cc2)NC(=O)[C@H]([C@@H](C)O)NC(=O)[C@H](C(C)C)NC(=O)CNC(=O)[C@H](CC(=O)O)NC(=O)[C@H](Cc2c[nH]cn2)NC(=O)[C@H](Cc2ccc(O)cc2)NC1=O [compound 7] ({CH2CO}-AR[Ahp(2)]YHDGVT[Bip][Ahp(2)]DC-NH2; thioether N-13) |
| 210000 | 0.00091 | 4.37 | CCCCC[C@@H]1NC(=O)[C@H](Cc2ccc(-c3ccccc3)cc2)NC(=O)[C@H](CC(C)C)NC(=O)[C@H](C(C)C)NC(=O)[C@H](CCC(=O)O)NC(=O)[C@H](CC(=O)O)NC(=O)[C@H](Cc2c[nH]cn2)NC(=O)[C@H](Cc2ccc(O)cc2)NC(=O)[C@H](CCCCC)NC(=O)[C@H](CCCNC(=N)N)NC(=O)[C@H](CCCCNC(=O)CCOCCOCCOCCOC)NC(=O)CSC[C@@H](C(N)=O)NC(=O)[C@H](CC(=O)O)NC1=O [compound 17] ({CH2CO}-K(X1)R[Ahp(2)]YHDEVL[Bip][Ahp(2)]DC-NH2; thioether N-13) |
| 631000 | 0.00186 | 2.94 | CCCCC[C@@H]1NC(=O)[C@H](CCCNC(=N)N)NC(=O)[C@H](C)NC(=O)CSC[C@@H](C(N)=O)NC(=O)[C@H](CC(=O)O)NC(=O)[C@H](CCCCC)NC(=O)[C@H](Cc2ccc(-c3ccccc3)cc2)NC(=O)[C@H](CC(C)C)NC(=O)[C@H](C(C)C)NC(=O)[C@H](CCS(C)(=O)=O)NC(=O)[C@H](CC(=O)O)NC(=O)[C@H](Cc2c[nH]cn2)NC(=O)[C@H](Cc2ccc(O)cc2)NC1=O [compound 6] ({CH2CO}-AR[Ahp(2)]YHD[Met(O2)]VL[Bip][Ahp(2)]DC-NH2; thioether N-13) |
| 1.6e+06 | 0.0019 |  | CCCCC[C@@H]1NC(=O)[C@H](CCCNC(=N)N)NC(=O)[C@H](C)NC(=O)CSC[C@@H](C(N)=O)NC(=O)[C@H](CC(=O)O)NC(=O)[C@H](CCCCC)NC(=O)[C@H](Cc2ccc(-c3ccccc3)cc2)NC(=O)[C@H](CC(C)C)NC(=O)[C@H](C(C)C)NC(=O)[C@H](CCCNC(=N)N)NC(=O)[C@H](CC(=O)O)NC(=O)[C@H](Cc2c[nH]cn2)NC(=O)[C@H](Cc2ccc(O)cc2)NC1=O [compound 11] ({CH2CO}-AR[Ahp(2)]YHDRVL[Bip][Ahp(2)]DC-NH2; thioether N-13) |
| 350000 | 0.0011 | 3.1 | CCCCC[C@@H]1NC(=O)[C@H](CCCNC(=N)NC)NC(=O)[C@H](C)NC(=O)CSC[C@@H](C(N)=O)NC(=O)[C@H](CC(=O)O)NC(=O)[C@H](CCCCc2ccccc2)NC(=O)[C@H](Cc2ccc(-c3ccccc3)cc2)NC(=O)[C@H](CC(C)C)NC(=O)[C@H](C(C)C)NC(=O)[C@H](CCC(=O)O)NC(=O)[C@H](CC(=O)O)NC(=O)[C@H](Cc2c[nH]cn2)NC(=O)[C@H](Cc2ccc(O)cc2)NC1=O [compound 30] ({CH2CO}-A[Arg(Me)][Ahp(2)]YHDEVL[Bip][Nle(6-Ph)]DC-NH2; thioether N-13) |
| 120000 | 0.0012 | 10.4 | CCCCC[C@@H]1NC(=O)[C@H](Cc2ccnc(N)c2)NC(=O)[C@H](C)NC(=O)CSC[C@@H](C(N)=O)NC(=O)[C@H](CC(=O)O)NC(=O)[C@H](CCCCc2ccccc2)NC(=O)[C@H](Cc2ccc(-c3ccccc3)cc2)NC(=O)[C@H](CC(C)C)NC(=O)[C@H](C(C)C)NC(=O)[C@H](CCC(=O)O)NC(=O)[C@H](CC(=O)O)NC(=O)[C@H](Cc2c[nH]cn2)NC(=O)[C@H](Cc2ccc(O)cc2)NC1=O [compound 34] ({CH2CO}-A[Ala(2-NH2-4-pyridyl)][Ahp(2)]YHDEVL[Bip][Nle(6-Ph)]DC-NH2; thioether N-13) |
| 310000 | 0.016 |  | CCCCC[C@@H]1NC(=O)[C@H](CCCNC(=N)N)NC(=O)[C@H](C)NC(=O)CSC[C@@H](C(N)=O)NC(=O)[C@H](CC(=O)O)NC(=O)[C@H](CCCCC)NC(=O)[C@H](Cc2ccc(-c3ccccc3)cc2)NC(=O)[C@H](CC(C)C)NC(=O)[C@H](C(C)C)NC(=O)[C@H](CCC(=O)O)NC(=O)[C@H](CC(=O)O)NC(=O)[C@H](Cc2c[nH]cn2)NC(=O)[C@H](C)NC1=O [compound 21] ({CH2CO}-AR[Ahp(2)]AHDEVL[Bip][Ahp(2)]DC-NH2; thioether N-13 (inferred); N-terminus and C-terminus assumed) |
| 1.9e+06 | 0.05 |  | CCCCC[C@@H]1NC(=O)[C@H](CCCNC(=N)N)NC(=O)[C@H](C)NC(=O)CSC[C@@H](C(N)=O)NC(=O)[C@H](CC(=O)O)NC(=O)[C@H](CCCc2ccccc2)NC(=O)[C@H](Cc2ccc(-c3ccccc3)cc2)NC(=O)[C@H](CC(C)C)NC(=O)[C@H](C(C)C)NC(=O)[C@H](CCC(=O)O)NC(=O)[C@H](CC(=O)O)NC(=O)[C@H](Cc2c[nH]cn2)NC(=O)[C@H](Cc2ccc(O)cc2)NC1=O [compound 26] ({CH2CO}-AR[Ahp(2)]YHDEVL[Bip][hhPhe]DC-NH2; thioether N-13) |
| 664000 | 0.00627 |  | CCCCC[C@@H]1NC(=O)[C@H](CCCNC(=N)N)NC(=O)[C@H](C)NC(=O)CSC[C@@H](C(N)=O)NC(=O)[C@H](CC(=O)O)NC(=O)[C@H](CCCCC)NC(=O)[C@H](Cc2ccc(-c3ccccc3)cc2)NC(=O)[C@H](CCS(C)(=O)=O)NC(=O)[C@H](C(C)C)NC(=O)CNC(=O)[C@H](CC(=O)O)NC(=O)[C@H](Cc2c[nH]cn2)NC(=O)[C@H](Cc2ccc(O)cc2)NC1=O [compound 9] ({CH2CO}-AR[Ahp(2)]YHDGV[Met(O2)][Bip][Ahp(2)]DC-NH2; thioether N-13 (inferred); N-terminus and C-terminus assumed) |
